Measurements published in PMC7615677 (Science translational medicine, 2023).
Several values for one entry are separate records, joined by “and”; a condition that tells them apart may be missing. Equal values may be shown once. Read-outs that look alike come from different tables or passages of the source.

Key:
[1] = test system: L. infantum; assay: Chronic hamster infection model (VL); assay type: in vivo, golden hamsters
Text: Female golden hamsters (5 per treatment group) were infected through intracardiac administration of 2x10^7 L. infantum amastigotes obtained from the spleen of a heavily infected donor hamster. […] After 5-day treatment period, followed by a 10-day wash out period, animals were sacrificed, and parasites burden assessed in the three target organs (liver, spleen, and bone-marrow). For this assessment, organs of individual animals were weighed, except for bone-marrow thus only providing a semi-quantitative evaluation only. Impression smears were Giemsa-stained for microscopic evaluation of amastigote burden, expressed as LDU (= mean number of amastigotes/cell × organ weight in mg) and the results were expressed as a percentage reduction compared to the burdens in the control group (vehicle as placebo). For evaluating the presence of viable residual burden after treatment, a promastigote back-transformation assay was conducted. This consisted of the incubation at ambient temperature of aseptically collected pieces of spleen or liver tissue in 1 mL of promastigote back-transformation medium in 24-well plates. For the bone-marrow, resected femurs were flushed with 1 mL medium. The medium consists of HOMEM pH 6.0 prepared as described elsewhere ([5]) with 10% fetal bovine serum (Gibco), 2.5% penicillin/streptomycin and 1% gentamicin (Merck). […]

[2] = test system: L. infantum; assay: Promastigote back-transformation assay on organs of treated hamsters; assay type: in vivo, golden hamsters; conditions: for parasite score, Bone-marrow / parasite score, Liver / parasite score, Spleen: 5 days, individual animals 1-5
Text: Female golden hamsters (5 per treatment group) were infected through intracardiac administration of 2x10^7 L. infantum amastigotes obtained from the spleen of a heavily infected donor hamster. […] After 5-day treatment period, followed by a 10-day wash out period, animals were sacrificed, and parasites burden assessed in the three target organs (liver, spleen, and bone-marrow). For this assessment, organs of individual animals were weighed, except for bone-marrow thus only providing a semi-quantitative evaluation only. Impression smears were Giemsa-stained for microscopic evaluation of amastigote burden, expressed as LDU (= mean number of amastigotes/cell × organ weight in mg) and the results were expressed as a percentage reduction compared to the burdens in the control group (vehicle as placebo). For evaluating the presence of viable residual burden after treatment, a promastigote back-transformation assay was conducted. This consisted of the incubation at ambient temperature of aseptically collected pieces of spleen or liver tissue in 1 mL of promastigote back-transformation medium in 24-well plates. For the bone-marrow, resected femurs were flushed with 1 mL medium. The medium consists of HOMEM pH 6.0 prepared as described elsewhere ([5]) with 10% fetal bovine serum (Gibco), 2.5% penicillin/streptomycin and 1% gentamicin (Merck). A qualitative assessment of the presence of promastigotes was made after 3 and 5 days of incubation and a score was attributed (+, ++ or +++) based on parasite density in the positive wells.
Supplementary Materials and methods
Promastigote transformation assay
For evaluating the presence of viable residual burdens after treatment, a promastigote back-transformation assay is conducted. This test consists of the incubation at ambient temperature of aseptically collected pieces of spleen or liver tissue in 1 mL of promastigote back-transformation medium in 24-well plates. For the bone-marrow, resected femurs are flushed with 1 mL medium. The medium consists of HOMEM pH 6.0 prepared as described elsewhere (1) with 10% fetal bovine serum (Gibco) and 2.5% penicillin/streptomycin and 1% gentamicin (Merck). A qualitative assessment of the presence of promastigotes is made after 3 and 5 days of incubation and a score is attributed (+, ++ or +++) based on parasite density in the positive […]
Supplementary Information on Tables
L. infantum MHOM/FR/96/LEM3323 Cl4 was originally obtained from a French HIV-positive patient (Languedoc area in Southern France) and provided by Dr. Laurence Lachaud of the Centre National de Référence des Leishmanioses (CNRL), Montpellier, France. The miltefosine and paromomycin resistant lines (LEM3323 Cl4 MIL-R and PMM-R) were obtained by successive in vitro selection cycles on intracellular amastigotes (2, 3)

[3] = In vivo pharmacokinetics; parameters: species or system male beagle dogs
Description: Additional PK studies were also conducted by WuXi AppTec Co, Ltd (Shanghai, China) according to protocols reviewed and approved by DNDi. […] IV and oral formulations for rats, mice and hamsters were the same as described above. For dogs, the IV dose was administered in saline containing 2% DMSO and 3% Solutol HS-15 and the oral formulation was as described above. Blood was sampled up to 48 h post-dose into vials containing potassium EDTA as an anticoagulant, proteins were precipitated with acetonitrile and plasma was separated and assayed by LC-MS.
Single dose pharmacokinetic parameters (clearance, volume of distribution and half-life) were initially estimated using non-compartmental methods and oral bioavailability was calculated using the ratio of the dose corrected AUC after oral dosing relative to that after IV administration. Nominal doses were used in the calculations unless the measured dose differed by more than 15% from the nominal dose, in which case the measured dose was used. Where a full concentration versus time profile was obtained from a single animal, parameters were estimated for each animal and mean and standard deviations calculated. In the case of mice where sparse sampling was used with multiple animals per time point, the data analysis was conducted using the mean profile.

[4] = test system: L. infantum; assay: PK/PD analysis of liver burden versus cumulative unbound AUC; assay type: in vivo, mice; conditions: Mouse – L. infantum; estimated using the fitted parameters
Text: To determine the correlation between the pharmacokinetic (PK) and pharmacodynamic (PD) data, repeat dose profiles in mice and hamsters following single and twice daily dosing were simulated using the fitted parameters.
Other parameters were less well correlated to efficacy, presumably given that none reflect the cumulative exposure profile with an extended treatment regimen. […] Results for mice infected with L. donovani were similar to those for L. infantum (Table S15).

[5] = test system: BALB/c 3T3 mouse fibroblasts; assay: In vitro 3T3 Neutral Red Uptake (NRU) phototoxicity assay; assay type: cell-based; conditions: 3T3 NRU
Description: Extinction coefficients were 16131 and 8507 L mol^-1 cm^-1, respectively. An in vitro 3T3 Neutral Red Uptake (NRU) phototoxicity assay was then conducted using a 96-well cytotoxicity-based assay that utilizes normal BALB/c 3T3 mouse fibroblasts to measure the concentration-dependent reduction in neutral red uptake by the cells after exposure to test material either in the presence or absence of UVA light. The assay was performed according to OECD (Test No. 432) test guidance ([42]). Duplicate 96-well monolayers of 3T3 fibroblasts were exposed to serial dilutions of test material. One of the plates was exposed to 5 J/cm2 UVA while the other plate was kept in the dark. To assess viability, the NRU by cells exposed to the test chemical in the presence of UVA exposure was compared to the NRU by cells exposed to the test chemical in the absence of UVA exposure. The Photo-Irritation-Factor (PIF) and Mean Photo Effect (MPE) were calculated.

[6] = dogs, single oral 90 mg/kg, two individual dogs, 90 mg/kg
[7] = male, beagle, dog, plasma, dogs, single oral 30 mg/kg
[8] = male, beagle, dog, plasma, dogs, single oral 90 mg/kg
[9] = male, beagle, plasma, Dog, oral 5.0 mg/kg

Q: What does the source list for Cc1[nH]c2nc(N)nc(C)c2c1-c1ccc(C#N)c2c1OCO2 [DNDI-6174]?
A: minimum efficacious daily dose ([1]; given qd for 5 days): 12.5 mg/kg; reduction of the parasite burden ([1]; once daily dosing at and above 12.5 mg/kg, liver, spleen and bone-marrow): more than 99%; parasite score, Bone-marrow ([2]; 3.125 mg/kg bid): ++; parasite score, Liver ([2]; 3.125 mg/kg bid): + (3×) and - (2×); parasite score, Spleen ([2]; 3.125 mg/kg bid): ++; parasite score, Bone-marrow ([2]; 12.5 mg/kg bid): - and +; parasite score, Liver ([2]; 12.5 mg/kg bid): -; parasite score, Spleen ([2]; 12.5 mg/kg bid): - and +; parasite score, Bone-marrow ([2]; 12.5 mg/kg qd): + (3×) and ++ (2×); parasite score, Liver ([2]; 12.5 mg/kg qd): + (3×) and - (2×); parasite score, Spleen ([2]; 12.5 mg/kg qd): ++ (4×) and +; parasite score, Bone-marrow ([2]; 25 mg/kg qd): + and - (4×); parasite score, Liver ([2]; 25 mg/kg qd): - (4×) and +; parasite score, Spleen ([2]; 25 mg/kg qd): -; parasite score, Bone-marrow ([2]; 50 mg/kg qd): - (4×) and +; parasite score, Liver ([2]; 50 mg/kg qd): - (4×) and +; parasite score, Spleen ([2]; 50 mg/kg qd): - (4×) and +; emergence of viable promastigotes from recovered organs, in words ([2]; DNDI-6174 treated animals): almost all the organs recovered proved to be negative in culture; AUC0-∞ [3, 6]: 533 µg·h/mL; T1/2 [3, 6]: 20.9 h; half-life ([3]; male, beagle, dog, plasma, iv, 1 mg/kg, Dog, intravenous 1.0 mg/kg, read-out: Apparent t1/2 (converted)): 9.84 h; AUC(0-inf) ([3]; male, beagle, dog, plasma, iv, 1 mg/kg, Dog, intravenous 1.0 mg/kg, read-out: Plasma AUC0-inf): 5 µg·h/mL; clearance ([3]; male, beagle, dog, plasma, iv, 1 mg/kg, Dog, intravenous 1.0 mg/kg, read-out: Plasma CL): 3.5 mL/min/kg; clearance ([3]; male, beagle, dog, plasma, iv, 1 mg/kg, Dog, read-out: Measured in vivo CLplasma): 3.4 mL/min/kg; half-life ([3]; male, beagle, dog, plasma, po, 5 mg/kg, Dog, oral 5.0 mg/kg, read-out: Apparent t1/2 (converted)): 6.9 h; AUC(0-inf) ([3]; male, beagle, dog, plasma, po, 5 mg/kg, Dog, oral 5.0 mg/kg, read-out: Plasma AUC0-∞): 18.5 µg·h/mL; AUC(0-inf) ([3]; male, beagle, dog, plasma, po, 30 mg/kg, dogs, single oral 30 mg/kg, read-out: AUC0-∞): 255 µg·h/mL; half-life ([3]; male, beagle, dog, plasma, po, 30 mg/kg, dogs, single oral 30 mg/kg, read-out: T1/2 (converted)): 14.4 h; AUC(0-inf) ([3]; male, beagle, dog, plasma, po, 90 mg/kg, dogs, single oral 90 mg/kg, two individual dogs, read-out: AUC0-∞): 613 µg·h/mL; half-life ([3]; male, beagle, dog, plasma, po, 90 mg/kg, dogs, single oral 90 mg/kg, two individual dogs, read-out: T1/2 (converted)): 14.2 h; Cmax [3, 7]: 9590 ng/mL; Tmax [3, 7]: 3.33 h; Cmax [3, 8]: 19100 ng/mL; Tmax [3, 8]: 10.7 h; Vd ([3]; male, beagle, plasma, Dog, intravenous 1.0 mg/kg, read-out: Plasma Vss): 2.5 L/kg; Cmax [3, 9]: 2020 ng/mL; Tmax [3, 9]: 4 h; bioavailability [3, 9]: 90%; unbound ED95 [4]: 27; risk of being phototoxic, in words [5]: discarded
